# Results as given in patent US8349826B2, “Oxazolidinone derivatives” (Actelion Pharmaceuticals Ltd., priority 2008, dated 2013).
# System: Moraxella catarrhalis A894
# Test: MIC by broth microdilution (cation-adjusted Mueller-Hinton Broth, CLSI M7-A7)
# Type: cell-based
# Experimental: Minimal inhibitory concentrations (MICS; mg/l) were determined in cation-adjusted Mueller-Hinton Broth by a microdilution procedure following the description given in “Procedures for Dilution Antimicrobial Susceptibility Tests for Bacteria that Grow Aerobically”, Approved standard, 7th ed., Clinical and Laboratory Standards Institute (CLSI) Document M7-A7, Wayne, Pa., USA, 2006. All Example compounds were tested against several Gram positive and Gram negative bacteria such as S. aureus, E. faecalis, S. pneumoniae, M. catarrhalis, A. baumanii, E. coli or P. aeruginosa.
row,MIC,Compound
1,≤ 0.031 µg/mL,"COc1ccc2ncc(=O)n(CCNCCC3CN(c4ccc5c(n4)NC(=O)CO5)C(=O)O3)c2n1 (racemic) [Example 33, rac-6-(5-{2-[2-(6-methoxy-3-oxo-3H-pyrido[2,3-b]pyrazin-4-yl)-ethylamino]-ethyl}-2-oxo-oxazolidin-3-yl)-4H-pyrido[3,2-b][1,4]oxazin-3-one]"
2,≤ 0.031 µg/mL,"COc1ccc2ncc(=O)n(CCCNC[C@@H]3CN(c4ccc5c(c4)NC(=O)CS5)C(=O)O3)c2n1 [Example 17, 6-methoxy-4-(3-{[(R)-2-oxo-3-(3-oxo-3,4-dihydro-2H-benzo[1,4]thiazin-6-yl)-oxazolidin-5-ylmethyl]-amino}-propyl)-4H-pyrido[2,3-b]pyrazin-3-one]"
3,≤ 0.031 µg/mL,"O=C(CCn1c(=O)ccc2ccc(Br)cc21)NC[C@@H]1CN(c2ccc3c(c2)NC(=O)CS3)C(=O)O1 [Example 9, 3-(7-bromo-2-oxo-2H-quinolin-1-yl)-N-[(R)-2-oxo-3-(3-oxo-3,4-dihydro-2H-benzo[1,4]thiazin-6-yl)-oxazolidin-5-ylmethyl]-propionamide]"
4,0.25 µg/mL,"O=C(CCn1c(=O)ccc2ccc(Br)cc21)NC[C@@H]1CN(c2ccc3c(c2)OCCO3)C(=O)O1 [Example 8, 3-(7-bromo-2-oxo-2H-quinolin-1-yl)-N-[(R)-3-(2,3-dihydro-benzo[1,4]dioxin-6-yl)-2-oxo-oxazolidin-5-ylmethyl]-propionamide]"
5,≤ 0.016 µg/mL,"COc1ccc2ncc(=O)n(C3CN(C[C@@H]4CN(c5ccc6c(c5)NC(=O)CS6)C(=O)O4)C3)c2n1 [Example 30, 6-methoxy-4-{1-[(R)-2-oxo-3-(3-oxo-3,4-dihydro-2H-benzo[1,4]thiazin-6-yl)-oxazolidin-5-ylmethyl]-azetidin-3-yl}-4H-pyrido[2,3-b]pyrazin-3-one]"
6,≤ 0.031 µg/mL,"COc1ccc2ncc(=O)n(CCNCC[C@@H]3CN(c4ccc5c(c4)NC(=O)CO5)C(=O)O3)c2n1 [Example 21, 6-methoxy-4-(2-{2-[(R)-2-oxo-3-(3-oxo-3,4-dihydro-2H-benzo[1,4]oxazin-6-yl)-oxazolidin-5-yl]-ethylamino}-ethyl)-4H-pyrido[2,3-b]pyrazin-3-one]"
